Measurements taken from paper PMC5905120, “An innovative immunotherapeutic strategy for ovarian cancer: CLEC10A and glycomimetic peptides” (Journal for Immunotherapy of Cancer, 2018).
Bridges are numbered along the chain shown (N, C = ends). Roman numbers before positions name the chains, in order. Where no end group is shown, it is not given here.

Tests used:
human ASGPR-1 = target: T1, human ASGPR-1 (Homo sapiens, UniProt P07306); assay: Solid-phase binding to recombinant human ASGPR-1; conditions: Fig. 2a, representative of 3 independent experiments
T1 construct: purchased R&D Systems
T1 sequence (P07306 62-291 limits assumed): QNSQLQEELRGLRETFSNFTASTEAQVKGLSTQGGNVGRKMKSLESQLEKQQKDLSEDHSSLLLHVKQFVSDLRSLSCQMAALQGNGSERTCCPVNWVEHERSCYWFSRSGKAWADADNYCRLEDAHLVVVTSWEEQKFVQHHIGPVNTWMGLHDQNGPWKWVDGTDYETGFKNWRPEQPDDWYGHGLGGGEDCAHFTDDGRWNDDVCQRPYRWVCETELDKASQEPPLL
Protocol: (§1) Solid-phase binding assays were performed with streptavidin-, protein A/G-, or Nickel-coated microtiter plates (Pierce). His-tagged or Fc-fusion recombinant receptors (R&D Systems, Minneapolis, MN) were reconstituted in PBS. Sufficient receptors were added to wells to saturate the coating. His-tagged receptors were added to each well at a 5-fold excess over the stated capacity of the Ni coating to minimize non-specific binding of the peptide. Wells were washed three times with binding buffer (25 mM Tris HCl, pH 7.4, 150 mM NaCl, 0.05% Tween-20) to remove unbound receptor and 50 μL of 2 μM biotinylated peptide in binding buffer were added and allowed to incubate for 1 h. The wells were washed four times with binding buffer and then incubated with 50 μL of 1 μg/mL streptavidin conjugated with peroxidase (Sigma-Aldrich) for 1 h. The wells were washed five times with binding buffer and 50 μL of peroxidase substrate (1-Step™ Ultra TMB, Pierce) were added. After several minutes to allow color development, the reaction was stopped with 50 μL 1 M H3PO4 and absorbance was measured at 450 nm. Bound streptavidin was quantitated by the specific activity of peroxidase (absorbance/ng protein conjugate/min) under the conditions of the assay.
Solid-phase binding assays were performed with recombinant human receptors. Three variations of the binding assay were used in this study, all of which allowed the arms of the tetravalent peptide to have full flexibility. (i) Biotinylated peptide was bound in microtiter wells coated with streptavidin and incubated with recombinant human receptors. After extensive washing, the bound receptor was measured by peroxidase conjugated to a receptor-specific antibody. (ii) The extracellular domains of receptors, which were fused with the Fc domain of immunoglobulin IgG, were bound in wells coated with protein A/G. Biotinylated peptide was incubated with the receptors and, after extensive washing, bound peptide was measured with streptavidin conjugated with peroxidase. Or (iii), recombinant receptors with a poly-His tag were bound to Nickel-coated wells and incubated with biotinylated peptide. svL4 and sv6D contain His residues (see Table 1) and can bind to the Ni coating, which was minimized by adding sufficient poly-His-tagged receptor to saturate the Ni coating.

CLEC9A = assay: Solid-phase binding to CLEC9A; design: species or system human; conditions: Fig. 2b
Protocol: as §1, with “The wells were washed five times with binding buffer and 50 μL of peroxidase substrate (1-Step™ Ultra TMB, Pierce) were added.” left out
(§2) Solid-phase binding assays were performed with recombinant human receptors. […] After extensive washing, the bound receptor was measured by peroxidase conjugated to a receptor-specific antibody. […]

DC-SIGN = assay: Solid-phase binding to DC-SIGN; design: species or system human; conditions: Fig. 2b
Protocol: as §1, with “The wells were washed five times with binding buffer and 50 μL of peroxidase substrate (1-Step™ Ultra TMB, Pierce) were added.” left out
as §2

[1] = test system: peritoneal low FSc and low SSc cells; assay: Peritoneal small-cell population in 4T1 tumor-bearing Balb/c mice; type: in vivo, mouse (Balb/c); conditions: 1 nmole/g
Protocol: After tumors had reached a volume of at least 500 mm^3, the peritoneal population of low FSc and low SSc cells was minimal (Fig. S2a). […] We conclude that this population is possibly progenitor cells and that additional treatments would lead to maturation of this population, as observed with healthy animals.
Fig. S2. Increase in the population of small cells in the peritoneal cavity of Balb/c mice bearing tumors of breast 4T1 cancer cell line. svL4 (1 nmole/g) was injected on day 0 and day 2, with analysis 24 h after each injection. a) Pseudocolor scatter plots of peritoneal cells from untreated or treated mice on day 3, 24 h after the second injection. […] Untreated animals, blue; treated animals, orange. Peritoneal cells from 3 animals were pooled and analyzed in triplicate. c) Histograms of normalized SSc vs. FSc for samples of peritoneal cells from Balb/c mice on day 3, from Fig. S2b, i.e., 24 h after the second injection of svL4. Blue trace, untreated animals; red trace, svL4-treated animals.

[2] = test system: serum cytokines/chemokines (mouse L-308 membrane array); assay: Serum cytokine array, healthy Balb/c mice; type: in vivo, mouse (Balb/c)
Protocol: Ratios of treated vs. untreated samples obtained in a separate experiment with healthy Balb/c mice are shown in the right-hand column of Table 3 for comparison. The most significant increase in the serum of healthy mice treated with the peptide was in the amount of soluble HVEM (Herpes virus entry mediator, also designated TNFRSF14), which was a prominent protein in serum and increased approximately 10-fold within 4 h after treatment. In the tumor-bearing mice, the level of soluble HVEM in treated animals was similar to that in treated healthy mice, but the level in untreated animals was higher than that in healthy control mice.

[3] = test system: TREG cells within melanoma tumors; assay: TREG cells in tumors of melanoma-bearing mice; type: in vivo, mouse; conditions: preliminary (data not shown)
brain glioma = conditions: in combination with brief radiation; ref [48]; cited from earlier work
Excerpt: We asked whether the collective evidence of the role of ligands of CLEC10A, such as promoting DC maturation, T cell activation, and initiation of an immune response would coalesce into an effective anti-cancer therapy. To achieve this goal, the ligand should serve as a ‘trigger’ to initiate a cascade of events that will lead to activation of the immune system. Given that natural ligands of CLEC10A that contain GalNAc bind with low affinity and are antigenic, we considered whether a multivalent peptide mimetic of GalNAc would serve this purpose. We previously described ef ...

[4] = healthy mice, separate experiment, three animals pooled
[5] = healthy mice, separate experiment, three animals pooled, * control value negligible or low

I: VQATQSNQHTPRGGGSKK-NH2 / II: VQATQSNQHTPRGGGSK / III: VQATQSNQHTPRGGGS / IV: VQATQSNQHTPRGGGS (amide I:17-IV:C, I:18-II:C, II:17-III:C) [svL4]
binding to ASGPR-1 (human ASGPR-1): also to ASGPR-1 | binding to CLEC9A (CLEC9A): did not bind significantly | binding to DC-SIGN (DC-SIGN): did not bind significantly | size of small-cell population ([1]; 24 h after first injection): not changed significantly | CD3^+ fraction of small cells ([1]; after second injection): 0.5% | CD19^+ fraction of small cells ([1]; after second injection): about 3% | size of small-cell population ([1]; within 24 h after second injection): dramatic increase | ratio treated/untreated serum CCL1 [2, 4]: No change | ratio treated/untreated serum IFN-γ [2, 4]: No change | ratio treated/untreated serum IL-1α [2, 4]: 0.86 | ratio treated/untreated serum IL-12p70 [2, 4]: No change | ratio treated/untreated serum IL-16 [2, 4]: 0.57 | ratio treated/untreated serum IL-27 [2, 4]: 0.55 | ratio treated/untreated serum Lymphotactin [2, 4]: 2.6 | ratio treated/untreated serum Lymphotoxin-α [2, 4]: 0.74 | ratio treated/untreated serum MIP-2/CXCL2 [2, 4]: No change | ratio treated/untreated serum Pentraxin3 [2, 4]: 0.21 | ratio treated/untreated serum SPARC [2, 4]: No change | ratio treated/untreated serum TIMP-2 [2, 4]: 0.45 | ratio treated/untreated serum TLR2 [2, 4]: 0.37 | ratio treated/untreated serum TNFα [2, 4]: 0.21 | ratio treated/untreated serum sHVEM [2, 4]: 10 | ratio treated/untreated serum IL-28 [2, 5]: High* | ratio treated/untreated serum IL-31 [2, 5]: High* | increase of soluble HVEM in serum ([2]; within 4 h after treatment): approximately 10 fold | TREG cells within tumors [3]: dramatic reduction in TREG cells | efficacy in murine brain glioma model (brain glioma): efficacy
